Assay results published in article PMC9501983, “Transport and Permeation Properties of Dapivirine: Understanding Potential Drug-Drug Interactions” (Pharmaceutics, 2022).

Assays:
human cervical tissue = experiment: Histology (H&E) of human cervical tissue after permeability assay; settings: 6-h exposure, clinically relevant concentrations
Description: Gross morphology of tissue samples was evaluated using hematoxylin and eosin (H&E) staining. After fixation in formalin, tissue samples were dehydrated in alcohol, cleared in xylene, and embedded in paraffin wax. Five-micron sections of embedded tissue were used to perform H&E staining following manufacturer’s procedures (hematoxylin for 5 min, bluing reagent for 15 s, and eosin for 2 min) and mounted onto microscope slides using Cytoseal 60. Images were acquired using the AxioCam software, version 4.9.1 (Carl Zeiss, San Diego, CA, USA) paired with the microscope, Axioskop 40 (Carl Zeiss, San Diego, CA, USA).

CYP3A4 = tested on: CYP3A4; set-up: method as in PMID 34959473; settings: cited from earlier work
P-gp = target: T1, P-gp (Homo sapiens, UniProt P08183); experiment: Bi-directional transport across MDCKII P-gp and WT cell monolayers; format: in vitro ADME
T1 construct: expressed in transfected cells; host or cells: MDCKII (Madin-Darby canine kidney) cells, provided by Dr. Philip E. Empey
T1 sequence (P08183 whole entry): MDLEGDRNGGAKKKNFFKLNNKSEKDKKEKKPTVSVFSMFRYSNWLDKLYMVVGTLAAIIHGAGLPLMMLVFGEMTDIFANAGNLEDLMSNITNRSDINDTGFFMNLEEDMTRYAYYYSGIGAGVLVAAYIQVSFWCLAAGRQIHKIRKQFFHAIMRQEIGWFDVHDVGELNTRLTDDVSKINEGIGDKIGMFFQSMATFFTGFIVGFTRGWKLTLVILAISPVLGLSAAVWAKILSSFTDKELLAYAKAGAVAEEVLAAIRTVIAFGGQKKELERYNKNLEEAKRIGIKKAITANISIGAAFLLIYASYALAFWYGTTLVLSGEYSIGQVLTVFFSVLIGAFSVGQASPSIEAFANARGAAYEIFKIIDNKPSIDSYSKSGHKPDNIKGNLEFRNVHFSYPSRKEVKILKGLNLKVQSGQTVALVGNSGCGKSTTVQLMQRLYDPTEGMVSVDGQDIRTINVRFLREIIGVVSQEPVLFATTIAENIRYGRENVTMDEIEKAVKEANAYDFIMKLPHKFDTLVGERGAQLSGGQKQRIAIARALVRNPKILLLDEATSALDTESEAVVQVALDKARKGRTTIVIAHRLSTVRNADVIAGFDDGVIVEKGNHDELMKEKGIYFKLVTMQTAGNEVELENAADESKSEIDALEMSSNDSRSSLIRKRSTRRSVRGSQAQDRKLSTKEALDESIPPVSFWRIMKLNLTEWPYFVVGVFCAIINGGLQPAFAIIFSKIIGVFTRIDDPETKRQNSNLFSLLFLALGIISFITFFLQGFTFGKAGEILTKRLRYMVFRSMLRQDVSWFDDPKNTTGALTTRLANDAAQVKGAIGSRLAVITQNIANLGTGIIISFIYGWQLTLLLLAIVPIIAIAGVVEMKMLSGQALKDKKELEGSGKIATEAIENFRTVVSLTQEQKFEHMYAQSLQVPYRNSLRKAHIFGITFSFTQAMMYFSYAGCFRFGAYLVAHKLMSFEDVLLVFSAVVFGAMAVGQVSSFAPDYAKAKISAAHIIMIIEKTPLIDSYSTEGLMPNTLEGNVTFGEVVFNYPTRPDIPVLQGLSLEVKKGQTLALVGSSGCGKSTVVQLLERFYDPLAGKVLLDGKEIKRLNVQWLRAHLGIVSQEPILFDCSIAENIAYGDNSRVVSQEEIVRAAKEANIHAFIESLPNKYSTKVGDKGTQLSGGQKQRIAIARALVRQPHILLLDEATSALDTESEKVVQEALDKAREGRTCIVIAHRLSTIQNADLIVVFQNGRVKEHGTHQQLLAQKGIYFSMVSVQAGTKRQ

Cc1cc(C)c(Nc2ccnc(Nc3ccc(C#N)cc3)n2)c(C)c1 [DPV, dapivirine]
Gross morphology of human cervical epithelium after exposure (human cervical tissue): did not alter the gross morphology | Substrate of CYP3A4 (CYP3A4): substrate | DPV ER in MDCKII P-gp cells with verapamil, reduced to % of ER without (P-gp; 0.5 μM DPV, 100 μM verapamil): 65% | Impact on Papp of digoxin across MDCKII P-gp monolayers (either direction) (P-gp; 5 μM DPV, 1 μM digoxin): no significant impact | Substrate status for P-gp (P-gp; cellular system): not a substrate | efflux ratio at 90 min, 0.5 μM (P-gp; dog, MDCK-MDR1, pH 7.4, 0.5 μM DPV, read-out: Net flux ratio (ER MDCKII P-gp / ER MDCKII WT)): 1.31
